Experiment: refractive index (Na D-line) (dimensionless); xn = mol fraction of the nth substance listed
Details: 101 kPa, Liquid, Standard Abbe refractometry

C1COCO1 [1,3-dioxolane] + CC(C)O
refractive index
Details	288.15 K	298.15 K	308.15 K
x1 = 0.05	1.38037	1.37601	1.37126
x1 = 0.1	1.38139	1.37686	1.37207
x1 = 0.15	1.38242	1.37776	1.37295
x1 = 0.2	1.38343	1.37869	1.37388
x1 = 0.25	1.38447	1.37966	1.37483
x1 = 0.3001	1.3855	1.38065	1.37579
x1 = 0.35	1.38655	1.38168	1.3768
x1 = 0.4	1.38763	1.38274	1.37785
x1 = 0.45	1.38875	1.38384	1.37894
x1 = 0.5	1.3899	1.38496	1.38006
x1 = 0.55	1.39107	1.38611	1.38121
x1 = 0.6	1.39227	1.38729	1.38238
x1 = 0.65	1.39348	1.3885	1.38359
x1 = 0.7001	1.39473	1.38975	1.38483
x1 = 0.75	1.396	1.39103	1.38608
x1 = 0.8	1.39731	1.39234	1.38737
x1 = 0.85	1.39862	1.39368	1.38872
x1 = 0.9	1.39993	1.39509	1.39013
x1 = 0.95	1.40123	1.39653	1.39165
x1 = 1	1.40252	1.39795	1.39322

— the NIST ThermoML archive (doi:10.1021/je800664z)
